Values after ≈ are worked out from the molar mass of the structure shown. Where two headings read alike, the source gives them in different places.
Columns and labels:
[1] = tested on: Staphylococcus aureus strain UAMS-1; experiment: Antimicrobial susceptibility testing (MIC, broth microdilution); type: cell-based; conditions: Staphylococcus aureus, UAMS1, 18 h, S. aureus UAMS-1, Mueller Hinton broth, 37° C., read-out: MIC
Experimental: The RNase P inhibitors described herein were tested for antimicrobial activity toward Staphylococcus aureus strain UAMS-1. Individual wells of a 96-well microtiter plate were inoculated with ˜1×10^5 colony-forming units (CFU) of the indicated organism, containing two-fold increasing concentrations (from 0 to 256 μg mL^−1) of the indicated antibiotic or putative RnpA inhibitor, and incubated at 37° C. for 18 hours in Mueller Hinton broth. The MIC was defined as the lowest concentration of antibiotic in which there was no visible bacterial growth in the wells. Minimum bactericidal concentration testing was performed by enumerating the bacterial cells in each of the wells containing treatments at and above the MIC.

[2] = target: T1, RnpA (Staphylococcus aureus, UniProt P0A0H5); experiment: RnpA mRNA degradation activity assay; type: biochemical
T1 sequence (P0A0H5 1-117): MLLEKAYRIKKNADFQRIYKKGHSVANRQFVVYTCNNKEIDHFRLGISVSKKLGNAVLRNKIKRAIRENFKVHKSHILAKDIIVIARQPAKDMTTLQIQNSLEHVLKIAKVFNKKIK
Experimental: The RNase P inhibitors described herein were tested for activity toward RnpA mRNA degradation activity. Either 1 μg of total S. aureus RNA or 1 pmol of in vitro synthesized spa mRNA was incubated with 20 pmol RnpA at 37° C. for 15 to 30 min in a reaction buffer (50 mM Tris-HCl pH 8.0, 2 mM NaCl, 2 mM MgCl2) in the absence or presence of the indicated compound. Reactions were stopped by adding an equal volume of 2×RNA loading dye (95% formamide, 0.025% SDS, 0.025% bromophenol blue, 0.025% xylene cyanol FF, 0.5 mM EDTA), run on a denaturing 1.0% agarose-0.66 M formaldehyde gel and stained with ethidium bromide. RNA substrates and corresponding degradation products were visualized using a FluorChem 5500 system (Alpha Innotech; San Leandro, Calif.). The inhibitory effects of the test compounds were measured using Image J densitometry software (National Institutes of Health; Bethesda, Md.) to quantify the signal intensity of the RNA band(s) in the negative control (RNA alone), positive control (RnpA+RNA+DMSO), and experimental samples (RnpA+RNA+test compound). The percent enzyme inhibition of test compounds was calculated using the following equation: Percent inhibition=[(experimental signal-positive control)/(negative control signal-positive control signal)]*100.

[3] = target: T2, S. aureus RNase P (RnpA+rnpB) (Staphylococcus aureus, UniProt P0A0H5); experiment: RNase P activity assay (precursor tRNA processing); type: biochemical; conditions: ptRNATyr processing, gel densitometry; read-out: RNase P IC50
T2 sequence (P0A0H5 1-117): T1 sequence (P0A0H5 1-117)
Experimental: The RNase P inhibitors described herein were tested for activity toward RNase P. S. aureus RNase P activity assays were performed in low salt buffer (50 mM Tris-HCl pH 8.0, 5 mM MgCl2) or in high salt buffer (50 mM Tris-HCl pH 8.0, 100 mM MgCl2, 800 mM NH4Cl). For all reactions, ptRNATyr, tRNATyr, or rnpB RNA species were first denatured by heating to 95° C. for 3 minutes, and then slowly cooling the mixtures to room temperature. RNase P was reconstituted by mixing an equal molar ratio of RnpB and RnpA for 15 min at 37° C. Precursor tRNA processing reactions (20 μL) were performed by mixing 1.25 pmol RNase P (RnpA+rnpB), RnpA, or rnpB with an equal volume of 2× low salt buffer or 2× high salt buffer and 10 pmol ptRNATyr. Mixtures were incubated for 15 min at 37° C. Reactions were stopped by adding 20 μL 2×RNA loading dye (95% formamide, 0.025% SDS, 0.025% bromophenol blue, 0.025% xylene cyanol FF, 0.5 mM EDTA), and 30 μL of each sample was electrophoresed in a 7 M urea/8% polyacrylamide gel and was then stained with ethidium bromide (0.5 μg/ml). Where indicated, reactions were repeated in the presence of the indicated amount of putative RnpA inhibitors or dimethyl sulfoxide (DMSO). A FluorChem 5500 imaging system was used to visualize the RNA, and the relative abundance of the mature tRNATyr band in the positive control (RNase P+DMSO) or in samples containing test compounds was measured using Image J densitometry software (NIH). The percent RNase P activity was then calculated using the following calculation: (test compound tRNATyr signal/positive control tRNATyr signal)*100.

[4] = tested on: S. aureus strain UAMS-1; experiment: Fractional Inhibitory Concentration testing with mupirocin; type: cell-based; conditions: combined with mupirocin, S. aureus UAMS-1, Mueller Hinton broth, 18 hours; synergistic FIC≤0.5
Experimental: The RNase P inhibitors described herein were tested for Fractional Inhibitory Concentration (FIC) in the presence of mupirocin. FIC testing was performed to determine the combined effects of mupirocin and the RnpA inhibitors as described herein. Individual wells of a 96-well microtiter plate were inoculated with 1×10^5 CFU of S. aureus strain UAMS-1 in a Mueller Hinton broth. Each row of the plate contained increasing concentrations of RNPA1000 or RNPA2000 (two-fold increments; 0, 0.004, 0.008, 0.016, 0.03, 0.06, 0.125, 0.25, 0.5, 1, 2, or 4×MIC), whereas each column contained increasing concentrations of the indicated antibiotic (two-fold increments; 0, 0.06, 0.125, 0.25, 0.5, 1, 2, or 4×MIC). Plates were incubated for 18 hours at 37° C., and growth was detected by the unaided eye. The FIC was determined using the following formula: (MIC of Drug A in Combination/MIC of Drug A Alone)+(MIC of Drug B in Combination/MIC of Drug B Alone)=FIC. A synergistic interaction was defined as an FIC value≤0.5, no interaction as an FIC of 0.5-4, or an antagonistic interaction FIC>4.

[5] = RnpA mRNA degradation, gel densitometry, read-out: RnpA IC50

Compound | MIC [1] | IC50 [2, 5] | IC50 [3] | FIC with Mupirocin [4] | IC50 [2]
CC(C)c1ccc(OCC(=O)NNC(=S)NC(=O)c2ccccn2)cc1 [MC-190053] | 32 µg/mL (≈ 85.9 µM) | 100 µM | 1 µM | 0.49 | 
CC(C)c1ccc(OCC(=O)NNC(=S)NC(=O)c2cc3ccccc3[nH]2)cc1 [MC-190054] | 16 µg/mL (≈ 39 µM) | 50 µM | < 0.5 µM | 0.49 | 
CC(C)c1ccc(OCC(=O)NNC(=S)NC(=O)c2c[nH]c3ccccc23)cc1 [MC-190055] | 32 µg/mL (≈ 78 µM) | 40 µM | 90 µM | 0.56 | 
COc1ccc2[nH]c(C(=O)NC(=S)NNC(=O)COc3ccc(C(C)C)cc3)cc2c1 [MC-190060] | 32 µg/mL (≈ 72.6 µM) | 50 µM | < 50 µM | 0.49 | 
CC(C)c1ccc(OCC(=O)NNC(=S)NC(=O)c2cc3cc(Cl)ccc3[nH]2)cc1 [MC-190064] | 256 µg/mL (≈ 575 µM) |  | 100 µM | 0.53 | > 500 µM
CC(C)c1ccc(OCC(=O)NNC(=S)NC(=O)c2cc3ccc(Cl)cc3[nH]2)cc1 [MC-190066] | 16 µg/mL (≈ 36 µM) | 250 µM | < 50 µM | 0.75 | 
CCOc1ccccc1C(=O)NNC(=S)NC(=O)c1ccco1 [MC-190067] | 8 to 16 µg/mL (≈ 24 to 48 µM) | > 500 µM | > 500 µM | 0.625 | 
O=C(NC(=S)NNC(=O)C1C[C@H]1c1ccccc1)c1ccco1 (stereo partly shown) [MC-190068] | 32 µg/mL (≈ 97.2 µM) | > 500 µM | 370 µM | 0.5 | 
CCOc1ccc(OCC(=O)NNC(=S)NC(=O)c2ccco2)cc1 [MC-190071] | 256 µg/mL (≈ 704 µM) | > 500 µM | > 500 µM | 0.375 | 
CC(C)c1ccc(OCC(=O)NNC(=S)NC(=O)c2cc3ccccc3s2)cc1 [MC-220001] | > 256 µg/mL | 50 µM | 100 µM | 0.56 | 
Cc1ccccc1OCC(=O)NNC(=S)NC(=O)c1ccco1 [ST5522690] | 16 µg/mL (≈ 48 µM) | > 500 µM | > 500 µM | 1 | 
Cc1cc(OCC(=O)NNC(=S)NC(=O)c2ccc(Br)o2)ccc1Cl [ST5522821] | 16 µg/mL (≈ 35.8 µM) | 35 µM | 220 µM | 0.75 | 
Cc1occc1C(=O)NNC(=S)NC(=O)COc1ccc(Cl)cc1Cl [ST5523108] | 4 µg/mL (≈ 9.94 µM) | > 500 µM | 75 µM | 0.49 | 
CC(C)c1ccccc1OCC(=O)NNC(=S)NC(=O)/C=C/c1cccs1 [ST5523210] | 32 µg/mL (≈ 79.3 µM) | 45 µM | 110 µM | 0.75 | 
CC(C)c1ccc(OCC(=O)NNC(=S)NC(=O)C2CC2)cc1 [ST5523314] | 8 µg/mL (≈ 23.9 µM) | > 500 µM | > 500 µM | 1 | 
Cc1ccc(OCC(=O)NNC(=S)NC(=O)c2ccc(Br)o2)c(C)c1 [ST5523326] | 8 µg/mL (≈ 18.8 µM) | 380 µM | 75 µM | 0.375 | 
Cc1cccc(C)c1OCC(=O)NNC(=S)NC(=O)c1ccc(-c2ccccc2)cc1 [ST5523335] | 128 µg/mL (≈ 295 µM) | > 500 µM | 100 µM | 0.375 | 
O=C(COc1ccc(-c2ccccc2)cc1)NNC(=S)NC(=O)c1ccc(Br)o1 [ST5524465] | 32 µg/mL (≈ 67.5 µM) | 45 µM | 65 µM | 0.625 | 
CC(C)(C)c1ccc(OCC(=O)NNC(=S)NC(=O)c2ccco2)c(Br)c1 [ST5524527] | 8 µg/mL (≈ 17.6 µM) | > 500 µM | 200 µM | 0.625 | 
O=C(COc1ccc(Cl)cc1Br)NNC(=S)NC(=O)c1ccco1 [ST5525958] | 32 µg/mL (≈ 74 µM) | > 500 µM | 125 µM | 0.75 | 
CCOc1ccc(C(=O)NC(=S)NNC(=O)COc2cc(C)ccc2C(C)C)cc1 [ST5528173] | 32 µg/mL (≈ 74.5 µM) | > 500 µM | 230 µM | 1 | 
CCCOc1ccccc1C(=O)NNC(=S)NC(=O)c1ccco1 [ST5528488] | 4 µg/mL (≈ 11.5 µM) | 430 µM | 95 µM | 0.5 | 
CC(C)c1ccccc1OCC(=O)NNC(=S)NC(=O)c1ccccc1OCCOc1ccccc1 [ST5528880] | > 128 µg/mL | > 500 µM | 380 µM | 0.56 | 
Cc1ccc(C(C)C)c(OCC(=O)NNC(=S)NC(=O)c2ccccc2OCCOc2ccccc2)c1 [ST5528960] | > 128 µg/mL | 40 µM | > 500 µM | 0.56 | 
CC(Oc1ccc2ccccc2c1)C(=O)NNC(=S)NC(=O)c1ccco1 (stereo not shown) [ST5682782] | > 128 µg/mL | > 500 µM | > 500 µM | 0.25 | 
CCCc1ccc(OCC(=O)NNC(=S)NC(=O)c2ccco2)cc1 [ST5682783] | > 128 µg/mL | > 500 µM | 65 µM | 0.31 | 
CCCOc1ccc(C(=O)NNC(=S)NC(=O)c2ccco2)cc1 [ST5684191] | 8 µg/mL (≈ 23 µM) | > 500 µM | > 500 µM | 0.375 | 
O=C(NNC(=S)NC(=O)c1ccco1)c1ccc(F)cc1 [ST5703018] | 64 µg/mL (≈ 208 µM) | > 500 µM | > 500 µM | 0.625 | 

From patent publication US10028931B2, “Synergistic compositions for treating microbial infections” (UNIVERSITY OF ROCHESTER, priority 2014, dated 2018)
